The values below come from patent US20180311340A1, “NEW ADJUVANT AND VACCINE COMPOSITION CONTAINING THE SAME” (priority 2015, published 2018).

The test system of one assay is PCSK9 antigenic peptide. Kind of assay: Immunogenicity study of PCSK9 vaccine; humoral response by ELISA. The format is in vivo, mice. The conditions noted are these: beta-sitosterol used along with alum; statement on Table 6. The method, then:
The results are measured in ELISA units.
PCSK9 vaccine was prepared as described in WIPO publication WO 2011/027257. Here, ‘VR_9.5’ as decribed in WO 2011/027257 has been used as PCSK9 peptide for the current experiment. Other disclosed PCSK9 peptide can also be used as PCSK9 construct. The prepared PCSK9 construct was conjugated with diphtheria toxoid as an immunogenic carrier. The said preparation was used as an antigen preparation for further study. The conjugated PCSK9 antigen was formulated with alum and beta-sitosterol. […] Blood samples were collected at day 63 for the analysis of humoral response by ELISA. Humoral response analysed by ELISA is shown in below table. […] Table 6 provided here below for the results obtained by ELISA.

Assay [1] relates to Influenza A/Singapore/6/86(H1N1). Kind of assay: Immunogenicity study of influenza virosome with flavonoids; humoral response by ELISA. It is filed as in vivo. The conditions noted are these: Balb/c mice, subcutaneous, 1 μg Influenza A virosome with 1 or 10 μg adjuvant, day 0 and 21, blood after 35 days; compared to other analysed flavonoids and virosomes without adjuvant.

Entries after “also recorded” stand apart in the source; their conditions may differ.

Regarding `CC[C@H](CC[C@@H](C)[C@H]1CC[C@H]2[C@@H]3CC=C4C[C@@H](O)CC[C@]4(C)[C@H]3CC[C@]12C)C(C)C` [beta-sitosterol], in the assay on PCSK9 antigenic peptide, the “immune response against PCSK9 antigenic peptide” value was “higher immune response; also recorded: synergistic effect”. In assay [1], the “immune response (serum titers of total IgG, IgG2a and IgG1 antibody, FIG. 1-3)” value is “higher immune response”.
